Test: Human HepG2 cell viability assay in 384 well format
Type: toxicity, cell-based
Set-up: dose 125 nL, time 70.5 hour; concentration not given beside the values
Conditions: HepG2 cells, read-out: Inhibition

Compound	cytotoxicity at 70.5 h [%]
N#Cc1ccc2c(c1)CN(C(=O)C1CC=CC1)C2c1cnco1 (configuration not stated)	-6.37
Cc1cnc(N2CCC3(CC2)CCN(c2cncnc2)C3=O)nc1	8.5
CCN(C)C(=O)c1cc(-c2ccn(C(C)C)n2)n2ccccc12	-3.51
O=C(NCc1cccs1)c1nc2c(o1)CN(c1ncccn1)C2	-6.55
O=C(c1cnccn1)N1CCC2(CC1)C(=O)NCC2c1ccccc1 (configuration not stated)	-6.72
CN(C)CCNC(=O)c1nc2c(o1)CN(c1ncccn1)C2	-3.63
Cc1ccc(N2CCC3(CCC(=O)N3)CC2)nn1	-10
CN1C(=O)CC2(CCN(S(=O)(=O)C3CC3)CC2)c2ccccc21	7.41
COCC1CN(C(=O)Cc2ccccn2)Cc2ncn(C)c21 (configuration not stated)	-2.47
O=C(NCc1cccnc1)C1=NOC2(CCN(C3CCOCC3)C2)C1 (configuration not stated)	-11.3
CC(C)N(C)C(=O)C1=NOC2(CCN(C(=O)NCc3cccnc3)C2)C1 (configuration not stated)	-9.91
CCOCC1CN(C(=O)c2ccoc2)Cc2nn(C)cc21 (configuration not stated)	-6.29
O=C([C@@H]1CC[C@@H]2[C@@H](CCN2Cc2ccncc2)O1)N1CCCCO1	-6.89
CNC(=O)c1cc2c(nc1NC(C)C)CCNCC2	6.54
CCOCc1ncn2c1CN(S(=O)(=O)c1ccc(F)cc1)CC2	9.27
COCc1ncn2c1CN(S(=O)(=O)c1cccc(OC)c1)CC2	8.77
c1ccc(-c2ncc3c(n2)C2(CCN(c4ncccn4)C2)COC3)cc1 (configuration not stated)	-2.35
O=C(Nc1ccccc1)C1CN(Cc2nccs2)CC12CCOCC2 (configuration not stated)	10
O=C(c1ncccn1)N1C[C@@H]2COC[C@]2(c2nnc(C3CC3)o2)C1	9.47
COCc1ncn2c1CN(S(=O)(=O)c1cccc(F)c1)CC2	-8.14
COCCO[C@@H]1C[C@H]2CN(C(=O)c3cccnc3)CCN2C1	-6.81
CS(=O)(=O)N1CCC2(COCc3cnc(-c4ccccc4)nc32)C1 (configuration not stated)	-10.2
Cc1noc(C)c1CN1CC2(CCN(C(=O)c3cccn3C)C2)CC1=O (configuration not stated)	-8.3
Cc1ncnc2c1CCN(C(=O)c1cccnc1)CC2	-6.81
Cc1ccc(CN2CCC3(CC(C(=O)NCC4CC4)=NO3)C2)s1 (configuration not stated)	-8.89
CCN(CC)CC1CN(Cc2c(C)noc2C)Cc2nccn2C1 (configuration not stated)	-4.28

Compound	cytotoxicity at 70.5 h [%]
Cc1noc(C)c1CN1CC2(CCN(C(=O)c3ccc[nH]3)C2)CC1=O (configuration not stated)	-6.16
O=C(NCC1CC1)C1=NOC2(CCN(Cc3ccsc3)C2)C1 (configuration not stated)	-7.31
O=C(CC1CC1)N1CCC2(CC1)CC(Oc1ccccc1)CO2 (configuration not stated)	-4.92
N#Cc1cccc(CN2CCC3(CC(C(=O)NCC4CC4)=NO3)C2)c1 (configuration not stated)	-4.48
Cc1noc(C)c1C(=O)N1CCC2(CC1)CC(Oc1ccccc1)CO2 (configuration not stated)	-3.84
Cc1ccc(C(=O)N2CCc3ncnc(C)c3CC2)cn1	-4.87
CS(=O)(=O)Nc1nn(Cc2ccc(F)cc2)cc1Br	-3.65
CCOc1cccc(C(=O)Nc2ccn(CC)n2)c1	-19.9
COCC(=O)N1CCC2(CC1)NC(=O)c1ccccc12	31.8
O=C(NCc1cncc2c1CCN(Cc1ccc(F)cc1)C2)C1CC1	-8.1
O=C(NCc1cncc2c1CCN(Cc1ccoc1)C2)C1CC1	-0.887
O=C(NCc1cncc2c1CCN(CC1CCOC1)C2)c1ccno1 (configuration not stated)	-6.93
Cc1ccc(CN2CC[C@@H](O)[C@@H]2Cc2ccccc2)o1	34
Cn1cncc1CNC1CC2(CCN(S(C)(=O)=O)CC2)c2ccccc21 (configuration not stated)	-2.27
O=C(c1cccnc1)N1C[C@@H](c2ccccc2)[C@@]2(CCNC2=O)C1	7.29
CCN1CCC2(CC1)CC(NC(=O)c1ccnnc1)c1ccccc12 (configuration not stated)	7.06
CO[C@@H]1CCN(Cc2ccc(C)o2)[C@H]1Cc1ccccc1	-1.2
Cc1cc(CN2C[C@@H](C)[C@@]3(CCN(C)C3=O)C2)oc1C	-5.99
Cc1ccc(N2CCN(Cc3ccccc3)C3(CCNCC3)C2=O)cn1	-4.83
CC(C)NC(=O)C1c2c(ncn2C(C)C)CCN1Cc1ccccc1 (configuration not stated)	-3.52
O=C([C@H]1CC[C@@H]2[C@@H](CCN2Cc2ccsc2)O1)N1CCOCC1	-6.53
c1cnc(N2CCCC3(COCCN(CC4CC4)C3)C2)nc1 (configuration not stated)	-10
Cn1cc(C(=O)N[C@H]2CN(Cc3nccs3)[C@@H]3CCCO[C@H]23)cn1	-8.57
O=C([C@H]1CC[C@@H]2[C@@H](CCN2Cc2ccc(F)cc2)O1)N1CCCO1	-9.2
Cn1cccc1C(=O)N1CCO[C@H]2[C@H](OCc3cccnc3)CC[C@@H]21	-7.88
O=C(NCc1cccs1)c1nc2c(o1)CN(C(=O)c1cccnc1)C2	7.5

Compound	cytotoxicity at 70.5 h [%]
CCN(C)c1ncnc2c1CCN(C(=O)c1ccoc1C)CC2	-10.9
CCN(C)c1ncnc2c1CCN(C(=O)c1ccsc1)CC2	-0.977
CC(C)Nc1nc2c(cc1C(=O)NCC1CC1)CCN(S(C)(=O)=O)CC2	-6.91
O=C(NCc1ccco1)[C@H]1CC[C@@H]2[C@@H](CCN2Cc2nccs2)O1	-4.65
O=C(c1cnccn1)N1CCN2C[C@H](OCc3ccccc3F)C[C@H]2C1	-6.71
O=C(NCc1ccco1)[C@@H]1CC[C@@H]2[C@@H](CCN2Cc2ccc(F)cc2)O1	-5.82
O=C(Nc1ccccc1)C1CN(Cc2ccco2)CC12CCOCC2 (configuration not stated)	-10.6
O=C(Nc1ccccc1)C1CN(Cc2ccsc2)CC12CCOCC2 (configuration not stated)	-18.9
COCc1ncn2c1CN(S(=O)(=O)Cc1ccc(C)cc1)CC2	-10.2
COCC1CN(Cc2csc(C)n2)Cc2nccn2C1 (configuration not stated)	2.98
CS(=O)(=O)N1CCOCC2(CN(Cc3ccc(F)cc3)CCO2)C1 (configuration not stated)	-3.17
CN(C)c1ncc2c(n1)C1(CCN(Cc3ccccc3F)C1)COC2 (configuration not stated)	-7.03
CCn1ncc2c1C(COC)CN(S(=O)(=O)N(C)C)C2 (configuration not stated)	-10.2
COc1ccc(CC(=O)N2Cc3nccn3CC(CN(C)C)C2)cc1 (configuration not stated)	20.5
Cc1ccc(CN2CCC3(CC2)CN(c2ccccc2)C(=O)CO3)o1	23.7
COCCN1CCO[C@@H]2CN(Cc3cc(OC)cc(OC)c3)C[C@@H]2C1	36.9
CN1CCN(Cc2ccncc2)C(=O)C12CCN(c1nccs1)CC2	-2.86
CN1CCN(C(=O)[C@H]2CC[C@@H]3[C@@H](CCN3Cc3ccsc3)O2)CC1	-6.96
CC(C)Nc1nc2c(cc1C(=O)NCC1CC1)CCN(CC1CC1)CC2	25.7
CN(Cc1ccco1)C[C@@H]1OC[C@H]2CN(Cc3nccs3)CC[C@H]21	4.46
CN(C)CC(=O)N1Cc2nnn(C)c2C(COCc2ccccn2)C1 (configuration not stated)	9.45
COCCN1CCO[C@@H]2CN(Cc3ccccn3)C[C@@H]2C1	2.26
c1cncc(CN2CCCC3(COCCN(c4cnccn4)C3)C2)c1 (configuration not stated)	-5.18
Cc1ncccc1NC(=O)[C@@H]1CC[C@@H]2[C@@H](CCN2Cc2cnn(C)c2)O1	13.5
CN(Cc1ccco1)C[C@H]1OC[C@@H]2CCN(Cc3ccccn3)C[C@@H]21	-8.48

From ChEMBL document CHEMBL3507680, “University of Dundee, Gates Library screen for HepG2 cell viability”
